According to ChEMBL document CHEMBL2177034, “Inhibition of hypoxia inducible factor-2 transcription: isolation of active modulators from marine sponges” (J Nat Prod, 2012):
pEC50, pIC50: −log10 of the molar value. Activity calls are given as the source filed them. The rule behind the calls is not given here.

What was measured:
[1] = target: T1, Endothelial PAS domain-containing protein 1 (Homo sapiens, UniProt Q99814); test: Inhibition of HIF2alpha in human RCC4 cells coexpressing HIF1alpha assessed as reduction in CCND1 mRNA expression at 20 uM after 48 hrs by RT-PCR analysis; assay type: cell-based
T1 sequence (Q99814 whole entry, the tested form may be a part): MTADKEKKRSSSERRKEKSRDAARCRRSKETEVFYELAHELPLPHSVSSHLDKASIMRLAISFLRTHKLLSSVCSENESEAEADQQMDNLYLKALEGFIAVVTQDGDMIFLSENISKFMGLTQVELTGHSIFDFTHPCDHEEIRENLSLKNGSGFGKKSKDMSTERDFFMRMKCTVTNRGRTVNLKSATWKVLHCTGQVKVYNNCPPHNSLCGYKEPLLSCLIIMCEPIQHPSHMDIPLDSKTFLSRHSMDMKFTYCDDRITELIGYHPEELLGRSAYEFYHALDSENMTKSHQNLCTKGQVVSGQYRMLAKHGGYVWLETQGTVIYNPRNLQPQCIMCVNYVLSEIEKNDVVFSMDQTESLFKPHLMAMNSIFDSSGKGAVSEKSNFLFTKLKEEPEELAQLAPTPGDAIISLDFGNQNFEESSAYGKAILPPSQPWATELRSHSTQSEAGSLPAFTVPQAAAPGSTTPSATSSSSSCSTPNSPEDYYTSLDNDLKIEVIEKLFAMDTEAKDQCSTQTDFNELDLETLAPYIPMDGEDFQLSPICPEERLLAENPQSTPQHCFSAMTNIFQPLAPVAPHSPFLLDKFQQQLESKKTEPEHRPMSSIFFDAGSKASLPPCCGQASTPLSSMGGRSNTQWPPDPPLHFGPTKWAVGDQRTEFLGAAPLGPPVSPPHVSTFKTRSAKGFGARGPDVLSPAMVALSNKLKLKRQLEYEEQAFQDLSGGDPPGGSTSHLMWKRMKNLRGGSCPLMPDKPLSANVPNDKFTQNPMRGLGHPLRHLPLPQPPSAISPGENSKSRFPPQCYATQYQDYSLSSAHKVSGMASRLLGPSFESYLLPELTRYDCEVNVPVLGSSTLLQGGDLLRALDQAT

[2] = target: Hypoxia-inducible factor 1-alpha (Homo sapiens) (UniProt Q16665); test: Inhibition of HIF1alpha in human RCC4 cells coexpressing HIF2alpha assessed as decrease in carbonic anhydrase 9 mRNA expression at 20 uM after 48 hrs by RT-PCR analysis; assay type: cell-based
Chain of Hypoxia-inducible factor 1-alpha (Homo sapiens) (Q16665 whole entry, looked up, the tested form may be a part): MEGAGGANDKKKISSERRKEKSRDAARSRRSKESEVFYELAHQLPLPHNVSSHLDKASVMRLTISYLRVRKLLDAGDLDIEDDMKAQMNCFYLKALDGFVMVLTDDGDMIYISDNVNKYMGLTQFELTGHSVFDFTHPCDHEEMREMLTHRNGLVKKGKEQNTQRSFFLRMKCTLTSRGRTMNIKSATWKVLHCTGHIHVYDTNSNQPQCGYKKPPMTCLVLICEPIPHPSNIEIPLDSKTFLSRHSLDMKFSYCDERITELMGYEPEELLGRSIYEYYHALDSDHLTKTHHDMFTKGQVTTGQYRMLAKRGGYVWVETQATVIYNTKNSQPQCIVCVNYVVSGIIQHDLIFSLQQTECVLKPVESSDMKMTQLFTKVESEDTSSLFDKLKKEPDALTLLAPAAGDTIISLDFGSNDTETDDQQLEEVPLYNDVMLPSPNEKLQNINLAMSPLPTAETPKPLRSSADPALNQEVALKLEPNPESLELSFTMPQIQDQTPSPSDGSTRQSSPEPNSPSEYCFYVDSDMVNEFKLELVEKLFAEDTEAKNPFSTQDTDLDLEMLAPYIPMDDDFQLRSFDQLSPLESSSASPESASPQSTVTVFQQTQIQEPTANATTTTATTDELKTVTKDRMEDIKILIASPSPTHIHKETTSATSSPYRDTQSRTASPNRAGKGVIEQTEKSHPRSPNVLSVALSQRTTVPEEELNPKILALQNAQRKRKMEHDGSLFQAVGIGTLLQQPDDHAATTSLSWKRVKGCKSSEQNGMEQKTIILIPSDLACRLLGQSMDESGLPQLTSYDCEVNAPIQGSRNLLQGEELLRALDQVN

[3] = target: T1, Endothelial PAS domain-containing protein 1; test: Inhibition of HIF2alpha in human 786-0 cells assessed as reduction in VEGFA mRNA expression at 20 uM after 48 hrs by RT-PCR analysis; assay type: cell-based
[4] = (§1) Downregulation of HIF1alpha mRNA expression in human RCC4 cells at 20 uM after 48 hrs by RT-PCR analysis; assay type: functional, cell-based
786-0 [5] = test: Inhibition of HIF-mediated VEGFA protein expression in serum deprived human 786-0 cells at 20 uM after 48 hrs relative to control; assay type: cell-based
786-0 [6] = test: Downregulation of carbonic anhydrase 9 expression in human 786-0 cells at 20 uM after 48 hrs by RT-PCR analysis; assay type: functional, cell-based
786-0 [7] = test: Cytotoxicity against human 786-0 cells expressing HIF2alpha after 2 days by XTT assay; assay type: functional, cell-based; conditions: 786-0, 48 h
[8] = target: T1, Endothelial PAS domain-containing protein 1; test: Inhibition of HIF2alpha in human 786-0 cells assessed as reduction in TGFalpha mRNA expression at 20 uM after 48 hrs by RT-PCR analysis; assay type: cell-based
[9] = Downregulation of actin mRNA expression in human SK-RC-28 cells expressing HIF2alpha at 20 uM after 48 hrs by RT-PCr analysis; assay type: ADME, cell-based
[10] = target: T1, Endothelial PAS domain-containing protein 1; test: Inhibition of HIF2alpha in human RCC4 cells coexpressing HIF1alpha assessed as reduction in GLUT1 mRNA expression at 20 uM after 48 hrs by RT-PCR analysis; assay type: cell-based
786-0 [11] = test: Inhibition of total protein expression in serum deprived human 786-0 cells at 20 uM after 48 hrs relative to control; assay type: cell-based; conditions: 786-0, 48 h, 20 µM
[12] = target: T1, Endothelial PAS domain-containing protein 1; test: Inhibition of HIF2alpha in human 786-0 cells assessed as reduction in GLUT1 mRNA expression at 20 uM after 48 hrs by RT-PCR analysis; assay type: cell-based
[13] = Downregulation of HIF2alpha mRNA expression in human SK-RC-28 cells at 20 uM after 48 hrs by RT-PCR analysis; assay type: functional, cell-based
[14] = target: T1, Endothelial PAS domain-containing protein 1; test: Inhibition of HIF2alpha in human 786-0 cells assessed as reduction in CCND1 mRNA expression at 20 uM after 48 hrs by RT-PCR analysis; assay type: cell-based
[15] = Downregulation of TGFalpha mRNA expression in human SK-RC-28 cells at 20 uM after 48 hrs by RT-PCR analysis; assay type: functional, cell-based
786-0 [16] = test: Downregulation of HIF2alpha mRNA expression in human 786-0 cells at 20 uM after 48 hrs by RT-PCR analysis; assay type: functional, cell-based
[17] = target: Hypoxia-inducible factor 1-alpha (Homo sapiens) (UniProt Q16665); test: Inhibition of HIF1alpha in human SK-RC-28 cells assessed as reduction in VEGFA expression at 20 uM after 48 hrs by RT-PCR analysis; assay type: cell-based
[18] = target: Hypoxia-inducible factor 1-alpha (Homo sapiens) (UniProt Q16665); test: Inhibition of HIF1alpha in human SK-RC-28 cells assessed as reduction in carbonic anhydrase 9 expression at 20 uM after 48 hrs by RT-PCR analysis; assay type: cell-based
[19] = (§2) Downregulation of HIF2alpha mRNA expression in human RCC4 cells at 20 uM after 48 hrs by RT-PCR analysis; assay type: functional, cell-based
[20] = Downregulation of HIF1alpha mRNA expression in human SK-RC-28 cells at 20 uM after 48 hrs by RT-PCR analysis; assay type: functional, cell-based
786-0 [21] = test: Downregulation of HIF1alpha mRNA expression in human 786-0 cells at 20 uM after 48 hrs by RT-PCR analysis; assay type: functional, cell-based
[22] = Cytotoxicity against human RCC4 cells expressing HIF2alpha and HIF1alpha after 2 days by XTT assay; assay type: functional, cell-based; conditions: RCC4, 48 h
[23] = target: T2, Hypoxia inducible factors; HIF-1-alpha, HIF-2-alpha (Homo sapiens) (UniProt Q16665+Q99814); test: Inhibition of HIF1alpha/2alpha in human RCC4 cells assessed as reduction in VEGFA mRNA expression at 20 uM after 48 hrs by RT-PCR analysis; assay type: cell-based
[24] = Downregulation of GLUT1 mRNA expression in human SK-RC-28 cells at 20 uM after 48 hrs by RT-PCR analysis; assay type: functional, cell-based
786-0 [25] = test: Downregulation of actin mRNA expression in human […] at 20 uM after 48 hrs by RT-PCr analysis; assay type: ADME, cell-based; conditions: 786-0, 48 h
[26] = as §2; assay type: functional, cell-based; remark: listed apart in the source
[27] = target: Hypoxia-inducible factor 1-alpha (Homo sapiens) (UniProt Q16665); test: Inhibition of HIF1alpha in human SK-RC-28 cells assessed as reduction in carbonic anhydrase expression at 20 uM after 48 hrs by RT-PCR analysis; assay type: cell-based
[28] = Cytotoxicity against human SK-RC-28 cells expressing HIF1alpha after 2 days by XTT assay; assay type: functional, cell-based; conditions: 48 h
[29] = target: T1, Endothelial PAS domain-containing protein 1; test: Inhibition of HIF2alpha in human 786-0 cells expressing truncated HIF1alpha assessed as reduction in luciferase activity after 24 hrs by reporter gene assay; assay type: cell-based
[30] = target: T1, Endothelial PAS domain-containing protein 1; test: Inhibition of HIF2alpha in human RCC4 cells coexpressing HIF1alpha assessed as reduction in TGFalpha mRNA expression at 20 uM after 48 hrs by RT-PCR analysis; assay type: cell-based
[31] = as §1; assay type: functional, cell-based; remark: listed apart in the source
[32] = Downregulation of CCND1 mRNA expression in human SK-RC-28 cells at 20 uM after 48 hrs by RT-PCR analysis; assay type: functional, cell-based
[33] = Downregulation of actin mRNA expression in human RCC4 cells expressing HIF1alpha and HIF2alpha at 20 uM after 48 hrs by RT-PCr analysis; assay type: ADME, cell-based; conditions: rcc4, 48 h
786-0 [34] = test: Downregulation of HIF2alpha mRNA expression in human 786-0 cells at 1 uM after 48 hrs by RT-PCR analysis; assay type: functional, cell-based
[35] = Downregulation of HIF2alpha mRNA expression in human RCC4 cells at 1 uM after 48 hrs by RT-PCR analysis; assay type: functional, cell-based
[36] = Downregulation of TGFalpha mRNA expression in human SK-RC-28 cells at 1 uM after 48 hrs by RT-PCR analysis; assay type: functional, cell-based
[37] = target: T1, Endothelial PAS domain-containing protein 1; test: Inhibition of HIF2alpha in human 786-0 cells assessed as reduction in CCND1 mRNA expression at 1 uM after 48 hrs by RT-PCR analysis; assay type: cell-based
[38] = target: T1, Endothelial PAS domain-containing protein 1; test: Inhibition of HIF2alpha in human RCC4 cells coexpressing HIF1alpha assessed as reduction in GLUT1 mRNA expression at 1 uM after 48 hrs by RT-PCR analysis; assay type: cell-based
[39] = Downregulation of GLUT1 mRNA expression in human SK-RC-28 cells at 1 uM after 48 hrs by RT-PCR analysis; assay type: functional, cell-based
[40] = Downregulation of HIF1alpha mRNA expression in human SK-RC-28 cells at 1 uM after 48 hrs by RT-PCR analysis; assay type: functional, cell-based
[41] = Downregulation of HIF1alpha mRNA expression in human RCC4 cells at 1 uM after 48 hrs by RT-PCR analysis; assay type: functional, cell-based
[42] = target: Hypoxia-inducible factor 1-alpha (Homo sapiens) (UniProt Q16665); test: Inhibition of HIF1alpha in human SK-RC-28 cells assessed as reduction in carbonic anhydrase 9 expression at 1 uM after 48 hrs by RT-PCR analysis; assay type: cell-based
786-0 [43] = test: Down regulation of carbonic anhydrase 9 expression in human 786-0 cells at 1 uM after 48 hrs by RT-PCR analysis; assay type: functional, cell-based
[44] = target: T2, Hypoxia inducible factors; HIF-1-alpha, HIF-2-alpha (Homo sapiens); test: Inhibition of HIF1alpha/2alpha in human RCC4 cells assessed as reduction in VEGFA mRNA expression at 1 uM after 48 hrs by RT-PCR analysis; assay type: cell-based
[45] = target: T1, Endothelial PAS domain-containing protein 1; test: Inhibition of HIF2alpha in human 786-0 cells assessed as reduction in TGFalpha mRNA expression at 1 uM after 48 hrs by RT-PCR analysis; assay type: cell-based
786-0 [46] = test: Inhibition of HIF-mediated VEGFA protein expression in serum deprived human 786-0 cells at 1 uM after 48 hrs relative to control; assay type: cell-based
[47] = Downregulation of HIF2alpha mRNA expression in human SK-RC-28 cells at 1 uM after 48 hrs by RT-PCR analysis; assay type: functional, cell-based
[48] = Downregulation of CCND1 mRNA expression in human SK-RC-28 cells at 1 uM after 48 hrs by RT-PCR analysis; assay type: functional, cell-based
[49] = target: T1, Endothelial PAS domain-containing protein 1; test: Inhibition of HIF2alpha in human 786-0 cells assessed as reduction in GLUT1 mRNA expression at 1 uM after 48 hrs by RT-PCR analysis; assay type: cell-based
[50] = target: T1, Endothelial PAS domain-containing protein 1; test: Inhibition of HIF2alpha in human RCC4 cells coexpressing HIF1alpha assessed as reduction in TGFalpha mRNA expression at 1 uM after 48 hrs by RT-PCR analysis; assay type: cell-based
[51] = target: Hypoxia-inducible factor 1-alpha (Homo sapiens) (UniProt Q16665); test: Inhibition of HIF1alpha in human SK-RC-28 cells assessed as reduction in VEGFA at 1 uM after 48 hrs by RT-PCR analysis; assay type: cell-based
[52] = target: T1, Endothelial PAS domain-containing protein 1; test: Inhibition of HIF2alpha in human RCC4 cells coexpressing HIF1alpha assessed as reduction in CCND1 mRNA expression at 1 uM after 48 hrs by RT-PCR analysis; assay type: cell-based
[53] = target: Hypoxia-inducible factor 1-alpha (Homo sapiens) (UniProt Q16665); test: Inhibition of HIF1alpha in human RCC4 cells coexpressing HIF2alpha assessed as decrease in carbonic anhydrase 9 mRNA expression at 1 uM after 48 hrs by RT-PCR analysis; assay type: cell-based
[54] = target: T1, Endothelial PAS domain-containing protein 1; test: Inhibition of HIF2alpha in human 786-0 cells assessed as reduction in VEGFA at 1 uM after 48 hrs by RT-PCR analysis; assay type: cell-based
786-0 [55] = test: Downregulation of HIF1alpha mRNA expression in human 786-0 cells at 1 uM after 48 hrs by RT-PCR analysis; assay type: functional, cell-based

Structure (SMILES): C#C[C@@H](O)/C=C/CCCCCCC#C[C@H](O)C#C/C=C/CC/C=C\CCCC/C=C\CCCCCCCCCCCCC/C=C/[C@@H](O)C#C [NEOPETROFORMYNE A]
- inhibition [1]: Active
- inhibition [2]: Active
- inhibition [3]: Active
- Activity [4]: Active
- inhibition (786-0 [5]): Active
- Activity (786-0 [6]): Active
- pIC50 (786-0 [7]): 4.84
- inhibition [8]: Active
- Activity [9]: Toxic
- inhibition [10]: Active
- Activity (786-0 [11]): Toxic
- inhibition [12]: Active
- Activity [13]: Active
- inhibition [14]: Active
- Activity [15]: Active
- Activity (786-0 [16]): Active
- inhibition [17]: Active
- inhibition [18]: Active
- Activity [19]: Active
- Activity [20]: Active
- Activity (786-0 [21]): Active
- pIC50 [22]: 4.56
- inhibition [23]: Active
- Activity [24]: Active
- Activity (786-0 [25]): Toxic
- Activity [26]: Active
- inhibition [27]: Active
- pIC50 [28]: 4.45
- pEC50 [29]: 5.06
- inhibition [30]: Active
- Activity [31]: Active
- Activity [32]: Active
- Activity [33]: Toxic

Structure (SMILES): Nc1nccc(-c2c3c(O)ccnc3n3c(N)nccc23)n1 [VARIOLIN B]
- pIC50 (786-0 [7]): < 4.00
- Activity (786-0 [34]): inactive
- Activity [35]: inactive
- Activity [36]: inactive
- inhibition [37]: inactive
- inhibition [38]: inactive
- Activity [39]: inactive
- Activity [40]: inactive
- Activity [41]: inactive
- inhibition [42]: inactive
- Activity (786-0 [43]): inactive
- inhibition [44]: inactive
- inhibition [45]: inactive
- inhibition (786-0 [46]): 50%
- pIC50 [22]: 5.06
- Activity [47]: inactive
- Activity [48]: inactive
- inhibition [49]: inactive
- pIC50 [28]: < 4.00
- inhibition [50]: inactive
- inhibition [51]: inactive
- pEC50 [29]: 6.15
- inhibition [52]: inactive
- inhibition [53]: inactive
- inhibition [54]: inactive
- Activity (786-0 [55]): inactive
